In the supplement of paper PMC10307832:

Columns and labels:
Experiment in all cases: relative viability (nuclei count vs DMSO), 5 days (fraction); higher = more cells survive
[1] = compound: Cn1nnc2c(C(N)=O)ncn2c1=O [Temozolomide] + CC(=O)Nc1cccc(-n2c(=O)n(C3CC3)c(=O)c3c(Nc4ccc(I)cc4F)n(C)c(=O)c(C)c32)c1 [Trametinib] (partner 0.02 µM)
Summary of the method: (§1)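 Values are medians from duplicate plates. Each reflects relative viability, defined as the nuclei count of treated wells over that of vehicle wells. Lung cancer cell lines in 1536-well plates were pin-tool dosed one day after seeding with one drug alone or with a fixed anchor-drug dose plus five library-drug doses (not always all listed) in √10 steps, then fixed, stained and imaged at 4× after 5 days.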

AZD5582 + Foretinib = compound: C[C@@H](C(=O)N[C@@H](C1CCCCC1)C(=O)N2CCC[C@H]2C(=O)N[C@@H]3[C@@H](CC4=CC=CC=C34)OCC#CC#CCO[C@@H]5CC6=CC=CC=C6[C@@H]5NC(=O)[C@@H]7CCCN7C(=O)[C@H](C8CCCCC8)NC(=O)[C@H](C)NC)NC [AZD5582] + COc1cc2c(Oc3ccc(NC(=O)C4(C(=O)Nc5ccc(F)cc5)CC4)cc3F)ccnc2cc1OCCCN1CCOCC1 [Foretinib] (partner 0.25 µM)
Summary of the method: as §1

[2] = compound: Cn1nnc2c(C(N)=O)ncn2c1=O [Temozolomide] + CC1(C)CCC(c2ccc(Cl)cc2)=C(CN2CCN(c3ccc(C(=O)NS(=O)(=O)c4ccc(N[C@H](CCN5CCOCC5)CSc5ccccc5)c(S(=O)(=O)C(F)(F)F)c4)cc3)CC2)C1 [Navitoclax] (partner 0.5 µM)
Summary of the method: as §1

AZD5582 + Vorinostat = compound: C[C@@H](C(=O)N[C@@H](C1CCCCC1)C(=O)N2CCC[C@H]2C(=O)N[C@@H]3[C@@H](CC4=CC=CC=C34)OCC#CC#CCO[C@@H]5CC6=CC=CC=C6[C@@H]5NC(=O)[C@@H]7CCCN7C(=O)[C@H](C8CCCCC8)NC(=O)[C@H](C)NC)NC [AZD5582] + O=C(CCCCCCC(=O)Nc1ccccc1)NO [Vorinostat] (partner 1 µM)
Summary of the method: as §1

Cell Line	relative viability ([1]; first compound 0.2 µM)	relative viability ([1]; first compound 0.6325 µM)	relative viability ([1]; first compound 2 µM)	relative viability ([1]; first compound 6.325 µM)	relative viability ([1]; first compound 20 µM)	relative viability (AZD5582 + Foretinib; first compound 0.001581 µM)	relative viability (AZD5582 + Foretinib; first compound 0.005 µM)	relative viability (AZD5582 + Foretinib; first compound 0.01581 µM)	relative viability (AZD5582 + Foretinib; first compound 0.05 µM)	relative viability ([2]; first compound 0.2 µM)	relative viability ([2]; first compound 0.6325 µM)	relative viability ([2]; first compound 2 µM)	relative viability ([2]; first compound 6.325 µM)	relative viability ([2]; first compound 20 µM)	relative viability (AZD5582 + Vorinostat; first compound 0.001581 µM)	relative viability (AZD5582 + Vorinostat; first compound 0.005 µM)	relative viability (AZD5582 + Vorinostat; first compound 0.01581 µM)	relative viability (AZD5582 + Vorinostat; first compound 0.05 µM)
LXF-289	0.693	0.693	0.683	0.653	0.667	0.941	0.944	1.03	0.977	0.98	0.91	0.946	0.937	0.847	0.698	0.779	0.641	0.905
NCI-H23	0.353	0.348	0.427	0.381	0.358	0.762	0.872	0.787	0.952	1.04	0.93	0.857	0.86	0.851	0.445	0.583	0.483	0.448
NCI-H358	0.108	0.143	0.131	0.139	0.145	0.684	0.938	0.779	0.626						0.639	0.745	0.678	0.714
NCI-H522	0.654	0.724	0.954	0.691	0.671										0.764	0.827	0.828	0.957
NCI-H650	0.954	1.02	1.38	0.869	1.01	1	0.958	0.91	0.794						0.316	0.305	0.308	0.619
NCI-H661	0.513	0.564	0.654	0.528	0.562	0.954	0.982	1.03	0.98						0.742	0.786	0.806	0.762
NCI-H1299						1.05	1.11	1.04	1.03	1.04	1.09	1.06	1.01	1.08				
NCI-H1563						0.897	0.958	0.894	0.924									
NCI-H1623						0.831	0.971	0.917	0.888									
NCI-H1648		0.477	0.454	0.545	0.307										0.415	0.441		0.476
NCI-H1792	0.389	0.441	0.471	0.317	0.517					0.852	0.773	0.655	0.577	0.616				
NCI-H2342	0.638	0.848	0.757	0.799	0.818	1.04	1.11	1.07	1.27						0.789	0.778	0.751	0.785
SW 900	0.728	0.783	0.966	1	0.59	0.866	0.666	0.895	0.451						0.435	0.444	0.364	0.295
